# In patent publication US10000473B2, “Indazole derivatives useful as glucagon receptor antagonists” (Janssen Pharmaceutica NV, priority 2016, dated 2018):
# Where “and” joins values, the source holds several entries; their conditions need not be identical. Equal values may be shown once.
# Target: T1, human GCGR (Homo sapiens, UniProt P47871)
# T1 construct: expressed in transfected cells; host or cells: HEK293 (hGluc-1HEK), pcDNA3.1, G418 selection
# Experiment: Cellular functional assay, cAMP readout (glucagon-stimulated cAMP, LANCE TR-FRET)
# Type: cell-based
# Conditions: HEK293 cells stably expressing full-length human GCGR; glucagon 100 pM; IC50 converted to Ki; read-out: Inhibition of cAMP Ki
# Experimental: IC50 Values in Cellular Functional Assays: cAMP Readout
# Full-length human GCGR (Accession Number: NM000160) subcloned into pcDNA3.1 was stably transfected into HEK293 cells (hGluc-1HEK) and maintained under G418 selection (500 μg/mL). Cell cultures were maintained in DMEM/F12 media supplemented with 10% FBS and 1% GlutaMax™ Supplement (Available from ThermoFisher Scientific, catalog #35050061). Glucagon stimulated cAMP was quantified using LANCE technology as per manufacturer instructions. On the day of the experiment, spent media was removed and cells were washed with Hank's Buffered Saline solution (HBSS), and cells harvested with non-enzymatic cell dissociation solution, then washed once with HBSS. Cells were re-suspended in stimulation buffer at a concentration of 0.83×10^6 cells/ml and cAMP detection antibody was added. 6 μl/well of this solution was then dispensed in a 384 well plate (cell density 5000 cells/well). Test compound was serially diluted in DMSO and 50 nl were dispensed on top of the cell solution and allowed to incubate for 30 minutes. 6 μl of a 2× glucagon solution (final concentration in assay 100 pM) was then added and the reaction was terminated after 5 minutes with the addition of detection mix. The resulting mixture was incubated, protected from light for 1.5 h. cAMP levels were quantified by TR-FRET in an EnVision instrument against a known standard. IC50's were generated by using a non-linear regression macro driven in Excel and converted to Ki values.
# T1 sequence (P47871 26-477): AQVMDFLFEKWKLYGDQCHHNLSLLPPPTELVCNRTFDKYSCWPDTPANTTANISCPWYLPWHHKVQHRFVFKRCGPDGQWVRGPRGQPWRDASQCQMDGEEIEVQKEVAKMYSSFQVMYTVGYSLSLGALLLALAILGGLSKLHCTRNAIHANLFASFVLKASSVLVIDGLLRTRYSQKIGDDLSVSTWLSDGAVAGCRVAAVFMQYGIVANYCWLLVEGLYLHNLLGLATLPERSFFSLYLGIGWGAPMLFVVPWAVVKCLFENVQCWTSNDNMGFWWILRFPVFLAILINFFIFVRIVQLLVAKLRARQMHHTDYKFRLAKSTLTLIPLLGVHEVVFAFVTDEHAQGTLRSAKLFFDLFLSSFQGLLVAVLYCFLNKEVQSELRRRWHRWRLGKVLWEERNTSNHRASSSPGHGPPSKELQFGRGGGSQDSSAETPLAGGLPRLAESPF
row,Ki,Compound
1,14 nM and 44 nM,"Cc1c(-c2ccc(C(F)(F)F)cc2Cl)ccc2nn(C(CC(C)C)c3ccc(C(=O)NCCC(=O)O)cc3)cc12 (stereo not shown) [Compound #18, 3-(4-(1-(5-(2-Chloro-4-(trifluoromethyl)phenyl)-4-methyl-2H-indazol-2-yl)-3-methylbutyl)benzamido)propanoic acid]"
2,465 nM,"CC(C)CC(c1ccc(C(=O)NCCC(=O)O)cc1)n1ncc2cc(-c3ccc(C(C)(C)C)cc3)ccc21 (single isomer, unassigned) [Compound #163]"
3,260 nM,CC(C)CC(c1ccc(C(=O)NCCC(=O)O)cc1)n1ncc2cc(-c3cc4cc(F)ccc4s3)ccc21 (stereo not shown) [compound 172]
4,199 nM,"Cc1cc(C(F)(F)F)ccc1-c1ccc2nn(C(CC(C)C)c3ccc(C(=O)NCCC(=O)O)cc3)cc2c1 (stereo not shown) [Compound #189, 3-(4-(3-Methyl-1-(5-(2-methyl-4-(trifluoromethyl)phenyl)-2H-indazol-2-yl)butyl)benzamido)propanoic acid]"
5,250 nM,Cc1cc(Cl)ccc1-c1ccc2c(cnn2C(CCC2CCCCC2)c2ccc(C(=O)NCCC(=O)O)cc2)c1 (stereo not shown) [compound 157]
6,700 nM,"O=C(O)CCNC(=O)c1ccc(C(CCC(F)(F)F)n2ncc3cc(-c4ccc(OC(F)(F)F)cc4)ccc32)cc1 (stereo not shown) [Compound #76, 3-[[4-[4,4,4-Trifluoro-1-[5-[4-(trifluoromethoxy)phenyl]indazol-1-yl]butyl]benzoyl]amino]propanoic acid]"
7,140 nM,"O=C(O)CCNC(=O)c1ccc(C(CCC(F)(F)F)n2ncc3cc(-c4cc5ccccc5s4)ccc32)cc1 (stereo not shown) [Compound #115, 3-[[4-[1-[5-(Benzothiophen-2-yl)indazol-1-yl]-4,4,4-trifluorobutyl]benzoyl]amino]propanoic acid]"
8,165 nM,O=C(O)CCNC(=O)c1ccc(C(CC2CCCC2)n2cc3cc(-c4ccc(C(F)(F)F)cc4)ccc3n2)cn1 (stereo not shown) [compound 188]
9,36 nM,"Cc1cc(C(F)(F)F)ccc1-c1cc2cnn(C(CC(C)C)c3ccc(C(=O)NCCC(=O)O)cc3)c2cc1C (stereo not shown) [Compound #93, 3-[[4-[3-Methyl-1-[6-methyl-5-[2-methyl-4-(trifluoromethyl)phenyl]indazol-1-yl]butyl]benzoyl]amino]propanoic acid]"
10,> 5200 nM,"Cc1cc(C(F)(F)F)ccc1-c1ccc2nn(C(CC(C)C)c3ccc(C(=O)NCCC(=O)O)nc3)cc2c1C(F)(F)F (stereo not shown) [Compound #246, 3-(5-(3-Methyl-1-(5-(2-methyl-4-(trifluoromethyl)phenyl)-4-(trifluoromethyl)-2H-indazol-2-yl)butyl)picolinamido)propanoic acid]"
11,275 nM,O=C(O)CCNC(=O)c1ccc(C(CCCC(F)(F)F)n2ncc3cc(-c4ccc(C(F)(F)F)cc4)ccc32)cc1 (stereo not shown) [compound 234]
12,25 nM,"Cc1cc(Cl)ccc1-c1ccc2nn(C(CC(C)C)c3ccc(C(=O)NCCC(=O)O)cc3)cc2c1C (stereo not shown) [Compound #20, 3-(4-(1-(5-(4-Chloro-2-methylphenyl)-4-methyl-2H-indazol-2-yl)-3-methylbutyl)benzamido)propanoic acid]"
13,25 nM,"Cc1c(-c2ccc(Cl)cc2Cl)ccc2nn(C(CC(C)C)c3ccc(C(=O)NCCC(=O)O)cc3)cc12 (stereo not shown) [Compound #190, 3-(4-(1-(5-(2,4-Dichlorophenyl)-4-methyl-2H-indazol-2-yl)-3-methylbutyl)benzamido)propanoic acid]"
14,37 nM,"COc1c(-c2ccc(Cl)cc2C)ccc2nn(C(CC(C)C)c3ccc(C(=O)NCCC(=O)O)cc3)cc12 (stereo not shown) [Compound #64, 3-(4-(1-(5-(4-Chloro-2-methylphenyl)-4-methoxy-2H-indazol-2-yl)-3-methylbutyl)benzamido)propanoic acid]"
15,430 nM,"CC(C)(F)CC(c1ccc(C(=O)NCCC(=O)O)cc1)n1ncc2cc(-c3ccc(C(F)(F)F)cc3)ccc21 (stereo not shown) [Compound #185, 3-(4-(3-Fluoro-3-methyl-1-(5-(4-(trifluoromethyl)phenyl)-1H-indazol-1-yl)butyl)benzamido)propanoic acid]"
16,1340 nM,Cc1cc(-c2ccc(C(C)(C)C)cc2)cc2cn(C(CC(C)C)c3ccc(C(=O)NCCC(=O)O)nc3)nc12 (stereo not shown) [compound 108]
